The target of the assay is T1, BRD9 (Homo sapiens, UniProt Q9H8M2).
T1 sequence (Q9H8M2 1-597): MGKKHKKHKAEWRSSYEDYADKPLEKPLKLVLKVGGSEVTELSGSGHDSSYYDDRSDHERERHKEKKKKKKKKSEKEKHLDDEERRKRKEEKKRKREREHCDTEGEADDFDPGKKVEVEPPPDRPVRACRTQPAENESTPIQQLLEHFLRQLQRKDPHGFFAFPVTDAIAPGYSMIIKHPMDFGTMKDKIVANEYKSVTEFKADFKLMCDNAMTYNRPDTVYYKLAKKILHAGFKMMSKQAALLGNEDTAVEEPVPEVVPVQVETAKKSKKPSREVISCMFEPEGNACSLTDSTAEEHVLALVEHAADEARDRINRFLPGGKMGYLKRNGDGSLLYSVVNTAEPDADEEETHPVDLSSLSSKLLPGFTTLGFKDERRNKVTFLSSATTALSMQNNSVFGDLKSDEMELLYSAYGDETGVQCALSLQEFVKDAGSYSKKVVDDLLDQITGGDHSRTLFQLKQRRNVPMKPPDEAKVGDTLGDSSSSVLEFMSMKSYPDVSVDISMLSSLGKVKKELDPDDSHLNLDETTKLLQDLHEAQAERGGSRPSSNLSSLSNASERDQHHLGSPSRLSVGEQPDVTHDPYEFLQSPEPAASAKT
Put plainly: Degradation of BRD9 (IF), immunofluorescence in MV4-11 cells, 24 hours (Assay Protocol 2). Format: cell-based. Also noted: A suspension of MV4-11 cells (ATCC CRL-9591) was prepared; host or cells: MV4-11. Particulars: BRD9 degradation; for DC50: Assay protocol 2, read-out: DC50; for Dmax: MV4-11, Assay protocol 2, read-out: Dmax. A digest of the protocol: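 MV4-11 cells treated with compound 24 h at 37° C., then fixed, permeabilised and immunostained for BRD9 (anti-BRD9 E4Q3F, Alexa 647 secondary, Hoechst counterstain). High-content imaging quantified nuclear BRD9 signal; % BRD9 remaining normalised to DMSO and 100 nM CFT-8634 controls.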

The DC50 is the concentration at which degradation of the target reaches its halfway point. By Dmax is commonly meant the greatest extent of degradation seen.

Bounds are passed on as bounds.

As to `COc1cc(-c2cn(C)c(=O)c3[nH]ncc23)cc(OC)c1CN1CCN(Cc2cccc3c2CCN(C(=O)/C(C#N)=C/c2cccc(Br)n2)C3C)C2(CC2)C1` (mixture of isomers) [Compound B118, (E/Z)-3-(6-bromopyridin-2-yl)-2-(5-((7-(2,6-dimethoxy-4-(6-methyl-7-oxo-6,7-dihydro-1H-pyrazolo[3,4-c]pyridin-4-yl)benzyl)-4,7-diazaspiro[2.5]octan-4-yl)methyl)-1-methyl-1,2,3,4-tetrahydroisoquinoline-2-carbonyl)acrylonitrile], the half-maximal degradation concentration (DC50) was < 1.25 nM and the Dmax was 70 to 75%.

Take `COc1cc(-c2cn(C)c(=O)c(C)c2C)cc(OC)c1CN1CCN(Cc2cccc3c2CCN(C(=O)/C(C#N)=C/C(C)(C)C)C3C)[C@H](C)C1` (mixture of isomers) [Compound B119, (E/Z)-2-(5-(((R)-4-(2,6-dimethoxy-4-(1,4,5-trimethyl-6-oxo-1,6-dihydropyridin-3-yl)benzyl)-2-methylpiperazin-1-yl)methyl)-1-methyl-1,2,3,4-tetrahydroisoquinoline-2-carbonyl)-4,4-dimethylpent-2-enenitrile]: the DC50 is 10 to 25 nM and the Dmax is 40 to 70%.

Regarding `CC[C@@H]1CN(Cc2cccc3c2CCN(C(=O)/C(C#N)=C/C(C)(C)C)C3C)CCN1Cc1c(OC)cc(-c2cn(C)c(=O)c(C)c2C)cc1OC` (mixture of isomers) [Compound B120, (E/Z)-2-(5-(((R)-4-(2,6-dimethoxy-4-(1,4,5-trimethyl-6-oxo-1,6-dihydropyridin-3-yl)benzyl)-3-ethylpiperazin-1-yl)methyl)-1-methyl-1,2,3,4-tetrahydroisoquinoline-2-carbonyl)-4,4-dimethylpent-2-enenitrile], the DC50 was in the range of 1.25 to 10 nM and the Dmax is 70 to 75%.

As to `COc1cc(-c2cn(C)c(=O)c(C)c2C)cc(OC)c1CN1C[C@H](C)N(Cc2cccc3c2CCN(C(=O)/C(C#N)=C/C(C)(C)C)C3C)C[C@@H]1C` (mixture of isomers) [Compound B121, (E/Z)-2-(5-(((2S,5S)-4-(2,6-dimethoxy-4-(1,4,5-trimethyl-6-oxo-1,6-dihydropyridin-3-yl)benzyl)-2,5-dimethylpiperazin-1-yl)methyl)-1-methyl-1,2,3,4-tetrahydroisoquinoline-2-carbonyl)-4,4-dimethylpent-2-enenitrile], the DC50 is 25 to 1000 nM and the maximal degradation (Dmax) fell in the range of 40 to 70%.

On to `COc1cc(-c2cn(C)c(=O)c(C)c2C)cc(OC)c1CN1CCN(Cc2cccc3c2CCN(C(=O)/C(C#N)=C/C(C)(C)C)C3C)C2(CCC2)C1` (mixture of isomers) [Compound B130, (E/Z)-2-(5-((8-(2,6-dimethoxy-4-(1,4,5-trimethyl-6-oxo-1,6-dihydropyridin-3-yl)benzyl)-5,8-diazaspiro[3.5]nonan-5-yl)methyl)-1-methyl-1,2,3,4-tetrahydroisoquinoline-2-carbonyl)-4,4-dimethylpent-2-enenitrile], for which the DC50 lay in the range of 10 to 25 nM and the Dmax is > 75%.

Take `COc1cc(-c2cn(C)c(=O)c(C)c2C)cc(OC)c1CN1CCN(Cc2cccc3c2CCN(C(=O)/C(C#N)=C/c2cccc(Br)n2)C3C)C(C(C)C)C1` (mixture of isomers) [Compound B131, (E/Z)-3-(6-bromopyridin-2-yl)-2-(5-((4-(2,6-dimethoxy-4-(1,4,5-trimethyl-6-oxo-1,6-dihydropyridin-3-yl)benzyl)-2-isopropylpiperazin-1-yl)methyl)-1-methyl-1,2,3,4-tetrahydroisoquinoline-2-carbonyl)acrylonitrile]: the half-maximal degradation concentration (DC50) was in the range of 1.25 to 10 nM and the Dmax was > 75%.

For `COc1cc(-c2cn(C)c(=O)c(C)c2C)cc(OC)c1CN1CC[C@H](Oc2cccc3c2CCN(C(=O)/C(C#N)=C/C(C)(C)C)C3C)C1` (mixture of isomers) [Compound B133, (E/Z)-2-(5-(((R)-1-(2,6-dimethoxy-4-(1,4,5-trimethyl-6-oxo-1,6-dihydropyridin-3-yl)benzyl)pyrrolidin-3-yl)oxy)-1-methyl-1,2,3,4-tetrahydroisoquinoline-2-carbonyl)-4,4-dimethylpent-2-enenitrile], the DC50 lay within 10 to 25 nM and the maximal degradation (Dmax) is 40 to 70%.

As for `CC[C@H]1CN(Cc2cccc3c2CCN(C(=O)/C(C#N)=C/C(C)(C)C)C3C)CCN1Cc1c(OC)cc(-c2cn(C)c(=O)c(C)c2C)cc1OC` (mixture of isomers) [Compound B135, (E/Z)-2-(5-(((S)-4-(2,6-dimethoxy-4-(1,4,5-trimethyl-6-oxo-1,6-dihydropyridin-3-yl)benzyl)-3-ethylpiperazin-1-yl)methyl)-1-methyl-1,2,3,4-tetrahydroisoquinoline-2-carbonyl)-4,4-dimethylpent-2-enenitrile], the DC50 lay within 1.25 to 10 nM and the Dmax is > 75%.

Regarding `COc1cc(-c2cn(C)c(=O)c(C)c2C)cc(OC)c1CN1CCN(Cc2cccc3c2CCN(C(=O)/C(C#N)=C/C(C)(C)C)C3C)C(C(C)C)C1` (mixture of isomers) [Compound B136, (E/Z)-2-(5-((4-(2,6-dimethoxy-4-(1,4,5-trimethyl-6-oxo-1,6-dihydropyridin-3-yl)benzyl)-2-isopropylpiperazin-1-yl)methyl)-1-methyl-1,2,3,4-tetrahydroisoquinoline-2-carbonyl)-4,4-dimethylpent-2-enenitrile], the DC50 was 1.25 to 10 nM and the Dmax was > 75%.

For `COc1cc(-c2cn(C)c(=O)c(C)c2C)cc(OC)c1CN1CCN(Cc2cccc3c2CCN(C(=O)/C(C#N)=C/C2CCOCC2)C3C)C2(CC2)C1` (mixture of isomers) [Compound B137, (E/Z)-2-(5-((7-(2,6-dimethoxy-4-(1,4,5-trimethyl-6-oxo-1,6-dihydropyridin-3-yl)benzyl)-4,7-diazaspiro[2.5]octan-4-yl)methyl)-1-methyl-1,2,3,4-tetrahydroisoquinoline-2-carbonyl)-3-(tetrahydro-2H-pyran-4-yl)acrylonitrile], the DC50 lay in the range of 1.25 to 10 nM and the Dmax was > 75%.

`COc1cc(-c2cn(C)c(=O)c(C)c2C)cc(OC)c1CN1CCN(Cc2cccc3c2CCN(C(=O)/C(C#N)=C/C(C)(C)C(F)F)C3C)C2(CC2)C1` (mixture of isomers) [Compound B138, (E/Z)-2-(5-((7-(2,6-dimethoxy-4-(1,4,5-trimethyl-6-oxo-1,6-dihydropyridin-3-yl)benzyl)-4,7-diazaspiro[2.5]octan-4-yl)methyl)-1-methyl-1,2,3,4-tetrahydroisoquinoline-2-carbonyl)-5,5-difluoro-4,4-dimethylpent-2-enenitrile]: the DC50 is < 1.25 nM and the Dmax was > 75%.

Take `CC[C@@H]1CN(Cc2c(OC)cc(-c3cn(C)c(=O)c(C)c3C)cc2OC)CCN1Cc1cccc2c1CCN(C(=O)/C(C#N)=C/C(C)(C)C)C2C` (mixture of isomers) [Compound B139, (E/Z)-2-(5-(((R)-4-(2,6-dimethoxy-4-(1,4,5-trimethyl-6-oxo-1,6-dihydropyridin-3-yl)benzyl)-2-ethylpiperazin-1-yl)methyl)-1-methyl-1,2,3,4-tetrahydroisoquinoline-2-carbonyl)-4,4-dimethylpent-2-enenitrile]: the DC50 is 10 to 25 nM and the Dmax lay within 70 to 75%.

For the molecule `COc1cc(-c2cn(C)c(=O)c(C)c2C)cc(OC)c1CN1CCN(Cc2cccc3c2CCN(C(=O)/C(C#N)=C/C(C)(C)F)C3C)C2(CC2)C1` (mixture of isomers) [Compound B140, (E/Z)-2-[5-[[7-[[2,6-dimethoxy-4-(1,4,5-trimethyl-6-oxo-3-pyridyl)phenyl]methyl]-4,7-diazaspiro[2.5]octan-4-yl]methyl]-1-methyl-3,4-dihydro-1H-isoquinoline-2-carbonyl]-4-fluoro-4-methyl-pent-2-enenitrile], the DC50 is < 1.25 nM and the Dmax is > 75%.

In the case of `COc1cc(-c2cn(C)c(=O)c(C)c2C)cc(OC)c1CN1CCN(Cc2cccc3c2CCN(C(=O)/C(C#N)=C\C24CC(OC)(C2)C4)C3C)C2(CC2)C1` (mixture of isomers) [Compound B141, (E/Z)-2-(5-((7-(2,6-dimethoxy-4-(1,4,5-trimethyl-6-oxo-1,6-dihydropyridin-3-yl)benzyl)-4,7-diazaspiro[2.5]octan-4-yl)methyl)-1-methyl-1,2,3,4-tetrahydroisoquinoline-2-carbonyl)-3-(3-methoxybicyclo[1.1.1]pentan-1-yl)acrylonitrile], the DC50 was < 1.25 nM and the Dmax is > 75%.

Regarding `COc1cc(-c2cn(C)c(=O)c(C)c2C)cc(OC)c1CN1CCN(Cc2cccc3c2CCN(C(=O)/C(C#N)=C/C(C)(C)C)C3C)CC1=O` (mixture of isomers) [Compound B142], the DC50 fell in the range of 1.25 to 10 nM and the Dmax was > 75%.

The values are drawn from patent US20260092061A1, “COMPOUNDS FOR TARGETED PROTEIN DEGRADATION” (Amphista Therapeutics Limited, priority 2022, published 2026).
